Measurements from US20250195403A1, “SKIN WHITENING, ANTI-BACTERIAL OR ANTI-ATOPIC COMPOSITION, CONTAINING SYZYGIUM FORMOSUM EXTRACT AS ACTIVE INGREDIENT” (CARBOEXPERT INC., priority 2018, published 2025).

Experiments:
B16F10 cell line = assay: Melanin production inhibitory activity in B16F10 cells; type: cell-based, mice; details: extract 0.1 mg/ml, 72 hours, 400 nm
Protocol: The cell line used in the test was B16F10 cell line (Korean Cell Line Bank, Korea), which is a malignant melanoma cell in mice. The cryopreserved cell line was cultured in a culture dish, and after cell line stabilization was confirmed while repeating the subculture twice to three times in the cycle of 2 to 3 days after the first cell culture, cells were cultured in a 48-well plate by the number of cells of 1×10^5/well. Then, the test was prepared by incubating for 24 hours. […] 300 μl of the medium containing each of the sample, the negative control group, and the positive control group was added to a 48-well plate on which cell had been cultured in advance, and cell were cultured for 72 hours at 37° C. under 5% CO2 while the medium was exchanged every day. Thereafter, the medium was removed by washing each well with PBS, and then the cells were treated with 200 μl of 1N NaOH. Thereafter, absorbance was measured at 400 nm using a SpectraMax M2 (Molecular devices, USA). The degree of inhibition on the production of melanin was calculated by comparing the absorbance of the test group with that of the control group treated with the negative control group by using Equation 2. [formula]

tyrosinase [1] = assay: Tyrosinase inhibitory activity using L-tyrosine; type: biochemical; details: substrate L-tyrosine, sample 0.5 mg/ml, 25° C., 15 minutes, 475 nm
Protocol: The inhibitory activity of tyrosinase, which is an enzyme that plays an important role in the melanin synthesis process, was confirmed using the Syzygium formosum extract.
500 μl of 1 mM L-tyrosine, 900 μl of 0.1 M phosphate buffer (pH 6.8), and 100 μl of 0.5 mg/ml Syzygium formosum extract dissolved in 10% DMSO (Example 1, Example 2, and Comparative Examples 1 to 7) were mixed, and then 100 μl of tyrosinase (53.7 U/ml) was added thereto and reacted at a temperature of 25° C. for 15 minutes. At this time, DMSO was used as a control group, and 0.5 mg/ml arbutin was used as a positive control group.
The absorbance of the reaction solution was measured at 475 nm for 15 minutes at time intervals of 30 seconds, and then, the tyrosinase inhibitory activity (%) was calculated using Equation 1.

tyrosinase [2] = assay: Tyrosinase inhibitory activity using L-DOPA; type: biochemical; details: substrate L-DOPA, 25° C., 5 minutes, 475 nm
Protocol: Tyrosinase inhibitory activity was confirmed using L-DOPA.
• Tyrosinase solution: Tyrosinase was dissolved in 0.1M PBS (Phosphate buffered saline) buffer to prepare a solution having a concentration of 110 U/ml. • Substrate: L-DOPA was dissolved in 0.1M PBS buffer to be in the concentration of 5 mM. • Sample Usage: Diluted with distilled water to a corresponding concentration and used. • Negative control: Distilled water was added instead of the sample.
Syzygium formosum extract (Example 1, Example 2, and Comparative Examples 1 to 7), 30 μl of negative control (control), 30 μl of positive control (positive control), 70 μl of 0.1M PBS buffer, and 30 μl of substrate were added. Then, 20 μl of tyrosinase was added thereto, and the reaction was performed at a temperature of 25° C. for 5 minutes. After completion of the reaction, absorbance was measured at 475 nm. The tyrosinase inhibitory activity (%) was calculated using Equation 1 by comparing the absorbance of the test group with that of the control group.

OC[C@H]1O[C@@H](Oc2ccc(O)cc2)[C@H](O)[C@@H](O)[C@@H]1O [Arbutin, arbutin]
Inhibitory activity (%) (B16F10 cell line): 21.1% | Inhibitory activity (%) (tyrosinase [1]): 49.1% | Inhibitory activity (%) (tyrosinase [2]): 18.6%
